Reference: PubChem BioAssay (NCI)
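Method: 48-hour compound exposure of cells in 96-well plates, five concentrations, linear interpolation of endpoints. TGI denotes the concentration required for complete inhibition of growth.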

Tests used:
Test in all cases: NCI anticancer screen, dose series, 48 h
[1] = tested on: ACHN renal
[2] = tested on: OVCAR-8 ovarian
[3] = tested on: MCF7 breast
[4] = tested on: MDA-N
[5] = tested on: PC-3 prostate
[6] = tested on: TK-10 renal
[7] = tested on: BT-549 breast
[8] = tested on: A549 NSCLC
[9] = tested on: SNB-75 CNS
[10] = tested on: UACC-62 melanoma
[11] = tested on: MALME-3M melanoma
[12] = tested on: MDA-MB-435
[13] = tested on: SK-MEL-5 melanoma
[14] = tested on: KM12 colon
[15] = tested on: OVCAR-4 ovarian
[16] = tested on: M14 melanoma
[17] = tested on: HCT-15 colon
[18] = tested on: 786-0 renal

Work on Cn1c(-c2cccs2)cc(-c2cccs2)c1-c1cccs1 yielded a TGI [1] greater than 100 µM, a TGI [2] greater than 100 µM and a TGI [3] greater than 100 µM. For the same molecule, the TGI [4] was greater than 100 µM, the TGI [5] was greater than 100 µM and the TGI [6] was greater than 100 µM. For the same molecule, the TGI [7] was greater than 100 µM, the TGI [8] was greater than 100 µM and the TGI [9] was greater than 100 µM. The TGI [10] was greater than 100 µM, the TGI [11] was greater than 100 µM and the TGI [12] was greater than 100 µM. For the same molecule, the TGI [13] was greater than 100 µM, the TGI [14] was greater than 100 µM and the TGI [15] was greater than 100 µM. The TGI [16] was greater than 100 µM, the TGI [17] was greater than 100 µM and the TGI [18] was greater than 100 µM.
Molecule CC[C@]12C=CCN3CC[C@@]4(c5cc(Br)c(OC)c([N+](=O)[O-])c5N(C)[C@H]4[C@@](O)(C(=O)OC)[C@@H]1OC(C)=O)[C@@H]32 has a TGI [1] greater than 100 µM, a TGI [2] greater than 100 µM and a TGI [3] greater than 100 µM. It also gave a TGI [4] greater than 100 µM, a TGI [5] greater than 100 µM and a TGI [6] greater than 100 µM. It also gave a TGI [7] greater than 100 µM, a TGI [8] greater than 100 µM and a TGI [9] greater than 100 µM. The TGI [10] was greater than 100 µM, the TGI [11] was greater than 100 µM and the TGI [12] was greater than 100 µM. For the same molecule, the TGI [13] was greater than 100 µM, the TGI [14] was greater than 100 µM and the TGI [15] was greater than 100 µM. For the same molecule, the TGI [16] was greater than 100 µM, the TGI [17] was greater than 100 µM and the TGI [18] was greater than 100 µM.
For O=C1CC(Br)c2c(Br)sc(Br)c21 (centres undefined), the TGI [1] was 31.6 µM, the TGI [2] was 29.6 µM and the TGI [3] was 32.4 µM. The TGI [4] was 28.8 µM, the TGI [5] was 39.4 µM and the TGI [6] was 32.4 µM. It also gave a TGI [7] of 36.7 µM, a TGI [8] greater than 100 µM and a TGI [9] of 42.4 µM. The TGI [10] was 30.8 µM, the TGI [11] was 38.3 µM and the TGI [12] was 39.1 µM. It also gave a TGI [13] of 35.4 µM, a TGI [14] of 49 µM and a TGI [15] of 33.3 µM. It also gave a TGI [16] of 29.2 µM, a TGI [17] of 34.6 µM and a TGI [18] of 29.9 µM.
Work on Cc1cc(S(=O)(=O)Nc2nc(N)nc(N3N=CCC3C)n2)c(SCC(=O)O)cc1Cl (centres undefined) yielded a TGI [1] greater than 10 µM, a TGI [2] greater than 10 µM and a TGI [3] greater than 10 µM. It also gave a TGI [4] greater than 10 µM, a TGI [5] greater than 10 µM and a TGI [6] greater than 10 µM. For the same molecule, the TGI [7] was greater than 10 µM, the TGI [8] was greater than 10 µM and the TGI [9] was greater than 10 µM. The TGI [10] was greater than 10 µM, the TGI [11] was greater than 10 µM and the TGI [12] was greater than 10 µM. For the same molecule, the TGI [13] was greater than 10 µM, the TGI [14] was greater than 10 µM and the TGI [15] was greater than 10 µM. It also gave a TGI [16] greater than 10 µM, a TGI [17] greater than 10 µM and a TGI [18] greater than 10 µM.
COC(=O)C1C2OC(C)(C)OC2CN1S(=O)(=O)c1ccc(C)cc1 (centres undefined) showed a TGI [1] greater than 100 µM, a TGI [2] greater than 100 µM and a TGI [3] greater than 100 µM. It also gave a TGI [4] greater than 100 µM, a TGI [5] greater than 100 µM and a TGI [6] greater than 100 µM. For the same molecule, the TGI [7] was greater than 100 µM, the TGI [8] was greater than 100 µM and the TGI [9] was greater than 100 µM. It also gave a TGI [10] greater than 100 µM, a TGI [11] greater than 100 µM and a TGI [12] greater than 100 µM. The TGI [13] was greater than 100 µM, the TGI [14] was greater than 100 µM and the TGI [15] was greater than 100 µM. The TGI [16] was greater than 100 µM, the TGI [17] was greater than 100 µM and the TGI [18] was greater than 100 µM.
Work on CN(CCC(=O)N1CC(CCl)c2ccc([N+](=O)[O-])cc21)CCC(=O)N1CC(CCl)c2ccc([N+](=O)[O-])cc21 (centres undefined) yielded a TGI [1] of 2.91 µM, a TGI [2] of 37.6 µM and a TGI [3] of 23.5 µM. It also gave a TGI [4] of 30.9 µM, a TGI [5] greater than 100 µM and a TGI [6] of 32 µM. For the same molecule, the TGI [7] was greater than 100 µM, the TGI [8] was greater than 100 µM and the TGI [9] was 19 µM. The TGI [10] was 24.7 µM, the TGI [11] was 23.7 µM and the TGI [12] was 27.5 µM. For the same molecule, the TGI [13] was 24.8 µM, the TGI [14] was 18.3 µM and the TGI [15] was greater than 100 µM. The TGI [16] was 21.7 µM, the TGI [17] was 25.9 µM and the TGI [18] was 25 µM.
For COc1cc(C(=O)NNC(=O)c2cc(Br)ccc2NC(=O)c2cccs2)cc(OC)c1OC, the TGI [1] was 43.6 µM, the TGI [2] was 59.9 µM and the TGI [3] was 52.1 µM. The TGI [4] was 74.9 µM, the TGI [5] was greater than 100 µM and the TGI [6] was greater than 100 µM. For the same molecule, the TGI [7] was greater than 100 µM, the TGI [8] was 61.3 µM and the TGI [9] was 24.6 µM. The TGI [10] was 34.1 µM, the TGI [11] was 86.1 µM and the TGI [12] was 50 µM. For the same molecule, the TGI [13] was 26.7 µM, the TGI [14] was greater than 100 µM and the TGI [15] was 51.4 µM. For the same molecule, the TGI [16] was 59.8 µM, the TGI [17] was 62.3 µM and the TGI [18] was 45.4 µM.
CC(NC(=O)OCc1ccccc1)NC(=O)OC(C)(C)C (centres undefined) was tested, and the TGI [1] was greater than 100 µM, the TGI [2] was greater than 100 µM and the TGI [3] was greater than 100 µM. The TGI [4] was greater than 100 µM, the TGI [5] was greater than 100 µM and the TGI [6] was greater than 100 µM. The TGI [7] was greater than 100 µM, the TGI [8] was greater than 100 µM and the TGI [9] was greater than 100 µM. It also gave a TGI [10] greater than 100 µM, a TGI [11] greater than 100 µM and a TGI [12] greater than 100 µM. It also gave a TGI [13] greater than 100 µM, a TGI [14] greater than 100 µM and a TGI [15] greater than 100 µM. The TGI [16] was greater than 100 µM, the TGI [17] was greater than 100 µM and the TGI [18] was greater than 100 µM.
With O=C1c2c(Br)sc(Br)c2C(NC(=O)C(F)(F)F)C1O (centres undefined) the TGI [1] was 84.2 µM, the TGI [2] was 44.1 µM and the TGI [3] was 45.3 µM. The TGI [4] was 40.4 µM, the TGI [5] was 74.9 µM and the TGI [6] was greater than 100 µM. The TGI [7] was 34.9 µM, the TGI [8] was 58.5 µM and the TGI [9] was greater than 100 µM. The TGI [10] was 40.8 µM, the TGI [11] was 43.7 µM and the TGI [12] was 54.3 µM. For the same molecule, the TGI [13] was 36 µM, the TGI [14] was 91.6 µM and the TGI [15] was 34.8 µM. It also gave a TGI [16] of 48.2 µM, a TGI [17] of 33.6 µM and a TGI [18] of 36.7 µM.
Cc1sc2nc(N(C)C)oc(=O)c2c1C showed a TGI [1] greater than 100 µM, a TGI [2] greater than 100 µM and a TGI [3] greater than 100 µM. It also gave a TGI [4] greater than 100 µM, a TGI [5] greater than 100 µM and a TGI [6] greater than 100 µM. For the same molecule, the TGI [7] was 49.1 µM, the TGI [8] was greater than 100 µM and the TGI [9] was greater than 100 µM. For the same molecule, the TGI [10] was greater than 100 µM, the TGI [11] was greater than 100 µM and the TGI [12] was greater than 100 µM. It also gave a TGI [13] greater than 100 µM, a TGI [14] greater than 100 µM and a TGI [15] greater than 100 µM. The TGI [16] was greater than 100 µM, the TGI [17] was greater than 100 µM and the TGI [18] was greater than 100 µM.
Cc1ccc(-c2c(C#N)c(-c3ccccc3)n(NS(=O)(=O)c3ccc(C)cc3)c(=O)c2C#N)cc1 was tested, and the TGI [1] was greater than 100 µM, the TGI [2] was greater than 100 µM and the TGI [3] was greater than 100 µM. The TGI [4] was greater than 100 µM, the TGI [5] was greater than 100 µM and the TGI [6] was greater than 100 µM. It also gave a TGI [7] greater than 100 µM, a TGI [8] greater than 100 µM and a TGI [9] greater than 100 µM. The TGI [10] was greater than 100 µM, the TGI [11] was greater than 100 µM and the TGI [12] was greater than 100 µM. The TGI [13] was 62.5 µM, the TGI [14] was greater than 100 µM and the TGI [15] was greater than 100 µM. For the same molecule, the TGI [16] was greater than 100 µM, the TGI [17] was greater than 100 µM and the TGI [18] was greater than 100 µM.
For CC1=NN(c2cccc(S(=O)(=O)O)c2)C2(C1)C(Cl)C(=O)N2c1nc2ccccc2s1 (centres undefined), the TGI [1] was 18.4 µM, the TGI [2] was 19.1 µM and the TGI [3] was 25 µM. It also gave a TGI [4] of 27.7 µM, a TGI [5] of 22.9 µM and a TGI [6] of 27.3 µM. It also gave a TGI [7] of 18.7 µM, a TGI [8] of 26.4 µM and a TGI [9] of 13.1 µM. The TGI [10] was 19.1 µM, the TGI [11] was 17.3 µM and the TGI [12] was 21.2 µM. The TGI [13] was 18.8 µM, the TGI [14] was 27.4 µM and the TGI [15] was 14.9 µM. The TGI [16] was 24.6 µM, the TGI [17] was 17.8 µM and the TGI [18] was 11.7 µM.
CC1(C)C2CC(O)C1(C)CC2=O (centres undefined) gave a TGI [1] greater than 100 µM, a TGI [2] greater than 100 µM and a TGI [3] greater than 100 µM. It also gave a TGI [4] greater than 100 µM, a TGI [5] greater than 100 µM and a TGI [6] greater than 100 µM. For the same molecule, the TGI [7] was greater than 100 µM, the TGI [8] was greater than 100 µM and the TGI [9] was greater than 100 µM. For the same molecule, the TGI [10] was greater than 100 µM, the TGI [11] was greater than 100 µM and the TGI [12] was greater than 100 µM. It also gave a TGI [13] greater than 100 µM, a TGI [14] greater than 100 µM and a TGI [15] greater than 100 µM. The TGI [16] was greater than 100 µM, the TGI [17] was greater than 100 µM and the TGI [18] was greater than 100 µM.
